Assay results published in article PMC10238757 (Pharmacology Research & Perspectives, 2023).
Where two headings read alike, the source gives them in different places. Marks after values point to notes of the source that are not given here.

Test system: healthy participants
Settings: for Abdominal pain, n occurrences (% of cohort) / All-cause AEs Grade 2, n occurrences (% of cohort) / All-cause AEs Grade 3/4, n occurrences (% of cohort) / All-cause AEs, n occurrences (% of cohort) / Constipation, n occurrences (% of cohort) / Diarrhea, n occurrences (% of cohort) / Drug-related AEs Grade 2, n occurrences (% of cohort) / Drug-related AEs Grade 3/4, n occurrences (% of cohort) / Drug-related AEs, n occurrences (% of cohort) / Headache, n occurrences (% of cohort) / MDSD, n occurrences (% of cohort): N=6

C=C(C)[C@@H]1CC[C@]2(NCCN3CCS(=O)(=O)CC3)CC[C@]3(C)[C@H](CC[C@@H]4[C@@]5(C)CC=C(C6=CC[C@@](COc7ncccc7C#N)(C(=O)O)CC6)C(C)(C)[C@@H]5CC[C@]43C)[C@@H]12 [GSK'937]
deaths or SAEs (SAD): No deaths or SAEs occurred
Abdominal pain, n occurrences (% of cohort) (SAD 10 mg): 1 (17)
All-cause AEs Grade 2, n occurrences (% of cohort) (SAD 10 mg): 0
All-cause AEs Grade 3/4, n occurrences (% of cohort) (SAD 10 mg): 0
All-cause AEs, n occurrences (% of cohort) (SAD 10 mg): 3 (17)
Constipation, n occurrences (% of cohort) (SAD 10 mg): 0
Diarrhea, n occurrences (% of cohort) (SAD 10 mg): 0
Drug-related AEs Grade 2, n occurrences (% of cohort) (SAD 10 mg): 0
Drug-related AEs Grade 3/4, n occurrences (% of cohort) (SAD 10 mg): 0
Drug-related AEs, n occurrences (% of cohort) (SAD 10 mg): 3 (17)
Headache, n occurrences (% of cohort) (SAD 10 mg): 1 (17)
MDSD, n occurrences (% of cohort) (SAD 10 mg): 0
Abdominal pain, n occurrences (% of cohort) (SAD 30 mg): 0
All-cause AEs Grade 2, n occurrences (% of cohort) (SAD 30 mg): 1 (17)
All-cause AEs Grade 3/4, n occurrences (% of cohort) (SAD 30 mg): 0
All-cause AEs, n occurrences (% of cohort) (SAD 30 mg): 5 (50)
Constipation, n occurrences (% of cohort) (SAD 30 mg): 2 (33)
Diarrhea, n occurrences (% of cohort) (SAD 30 mg): 0
Drug-related AEs Grade 2, n occurrences (% of cohort) (SAD 30 mg): 1 (17)
Drug-related AEs Grade 3/4, n occurrences (% of cohort) (SAD 30 mg): 0
Drug-related AEs, n occurrences (% of cohort) (SAD 30 mg): 1 (17)
Headache, n occurrences (% of cohort) (SAD 30 mg): 0
MDSD, n occurrences (% of cohort) (SAD 30 mg): 1 (17)
Abdominal pain, n occurrences (% of cohort) (SAD 80 mg): 0
All-cause AEs Grade 2, n occurrences (% of cohort) (SAD 80 mg): 0
All-cause AEs Grade 3/4, n occurrences (% of cohort) (SAD 80 mg): 0
All-cause AEs, n occurrences (% of cohort) (SAD 80 mg): 4 (50) ^f
Constipation, n occurrences (% of cohort) (SAD 80 mg): 0
Diarrhea, n occurrences (% of cohort) (SAD 80 mg): 0
Drug-related AEs Grade 2, n occurrences (% of cohort) (SAD 80 mg): 0
Drug-related AEs Grade 3/4, n occurrences (% of cohort) (SAD 80 mg): 0
Drug-related AEs, n occurrences (% of cohort) (SAD 80 mg): 1 (17)
Headache, n occurrences (% of cohort) (SAD 80 mg): 1 (17)
MDSD, n occurrences (% of cohort) (SAD 80 mg): 0
Abdominal pain, n occurrences (% of cohort) (SAD 320 mg): 1 (17)
All-cause AEs Grade 2, n occurrences (% of cohort) (SAD 320 mg): 1 (17)
All-cause AEs Grade 3/4, n occurrences (% of cohort) (SAD 320 mg): 0
All-cause AEs, n occurrences (% of cohort) (SAD 320 mg): 5 (33)
Constipation, n occurrences (% of cohort) (SAD 320 mg): 0
Diarrhea, n occurrences (% of cohort) (SAD 320 mg): 1 (17)
Drug-related AEs Grade 2, n occurrences (% of cohort) (SAD 320 mg): 0
Drug-related AEs Grade 3/4, n occurrences (% of cohort) (SAD 320 mg): 0
Drug-related AEs, n occurrences (% of cohort) (SAD 320 mg): 4 (17)
Headache, n occurrences (% of cohort) (SAD 320 mg): 0
MDSD, n occurrences (% of cohort) (SAD 320 mg): 0
Abdominal pain, n occurrences (% of cohort) (SAD 640 mg): 1 (17)
All-cause AEs Grade 2, n occurrences (% of cohort) (SAD 640 mg): 2 (17)
All-cause AEs Grade 3/4, n occurrences (% of cohort) (SAD 640 mg): 0
All-cause AEs, n occurrences (% of cohort) (SAD 640 mg): 8 (67)
Constipation, n occurrences (% of cohort) (SAD 640 mg): 1 (17)
Diarrhea, n occurrences (% of cohort) (SAD 640 mg): 1 (17)
Drug-related AEs Grade 2, n occurrences (% of cohort) (SAD 640 mg): 2 (17)
Drug-related AEs Grade 3/4, n occurrences (% of cohort) (SAD 640 mg): 0
Drug-related AEs, n occurrences (% of cohort) (SAD 640 mg): 2 (17)
Headache, n occurrences (% of cohort) (SAD 640 mg): 0
MDSD, n occurrences (% of cohort) (SAD 640 mg): 4 (67)
Abdominal pain, n occurrences (% of cohort) (SAD 800 mg): 0
All-cause AEs Grade 2, n occurrences (% of cohort) (SAD 800 mg): 1 (17)
All-cause AEs Grade 3/4, n occurrences (% of cohort) (SAD 800 mg): 0
All-cause AEs, n occurrences (% of cohort) (SAD 800 mg): 4 (33)
Constipation, n occurrences (% of cohort) (SAD 800 mg): 0
Diarrhea, n occurrences (% of cohort) (SAD 800 mg): 2 (33)
Drug-related AEs Grade 2, n occurrences (% of cohort) (SAD 800 mg): 1 (17)
Drug-related AEs Grade 3/4, n occurrences (% of cohort) (SAD 800 mg): 0
